Measurements: PubChem BioAssay AID1963445 (Molecular Pharmacology Branch, DTP, NCI, 2024)
Where “and” joins values, the source holds several entries; their conditions need not be identical. Identical values can stand only once.

Tested on: MCF7 complex spheroid growth, % test/control
Assay: Anticancer human tumor MCF7 cell line growth inhibition [Asc];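 note: spheroids exposed to compounds for 7 days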;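 for viability, T/C: 100% = DMSO vehicle control wells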
Details: for viability, T/C: stronger effect = lower value; active = viability on the fitted dose curve at most 10% of control; inactive = the rest
In short: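 Tumor cells were grown as multicellular spheroids with stromal HUVEC and mesenchymal stem cells and treated singly or in combination. Concentrations fell in half-log steps from the clinical Cmax, or from 10 microM where none was known.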

[1] = curve of first compound, second compound 0.00316 µM
[2] = curve of first compound, second compound 0.01 µM
[3] = curve of first compound, second compound 0.0316 µM
[4] = curve of first compound, second compound 0.1 µM
[5] = curve of first compound, second compound 0.316 µM
[6] = curve of first compound, second compound 1 µM
[7] = second compound 0.00316 µM, first compound 0.0316 µM
[8] = second compound 0.00316 µM, first compound 0.1 µM
[9] = second compound 0.00316 µM, first compound 0.316 µM
[10] = second compound 0.00316 µM, first compound 1 µM
[11] = second compound 0.01 µM, first compound 0.0316 µM
[12] = second compound 0.01 µM, first compound 0.1 µM
[13] = second compound 0.01 µM, first compound 0.316 µM
[14] = second compound 0.01 µM, first compound 1 µM
[15] = second compound 0.0316 µM, first compound 0.0316 µM
[16] = second compound 0.0316 µM, first compound 0.1 µM
[17] = second compound 0.0316 µM, first compound 0.316 µM
[18] = second compound 0.0316 µM, first compound 1 µM
[19] = second compound 0.1 µM, first compound 0.0316 µM
[20] = second compound 0.1 µM, first compound 0.1 µM
[21] = second compound 0.1 µM, first compound 0.316 µM
[22] = second compound 0.1 µM, first compound 1 µM
[23] = second compound 0.316 µM, first compound 0.0316 µM
[24] = second compound 0.316 µM, first compound 0.1 µM
[25] = second compound 0.316 µM, first compound 0.316 µM
[26] = second compound 0.316 µM, first compound 1 µM
[27] = second compound 1 µM, first compound 0.0316 µM
[28] = second compound 1 µM, first compound 0.1 µM
[29] = second compound 1 µM, first compound 0.316 µM
[30] = second compound 1 µM, first compound 1 µM
[31] = second compound 0.00316 µM, first compound 3.16 µM
[32] = second compound 0.00316 µM, first compound 10 µM
[33] = second compound 0.01 µM, first compound 3.16 µM
[34] = second compound 0.01 µM, first compound 10 µM
[35] = second compound 0.0316 µM, first compound 3.16 µM
[36] = second compound 0.0316 µM, first compound 10 µM
[37] = second compound 0.1 µM, first compound 3.16 µM
[38] = second compound 0.1 µM, first compound 10 µM
[39] = second compound 0.316 µM, first compound 3.16 µM
[40] = second compound 0.316 µM, first compound 10 µM
[41] = second compound 1 µM, first compound 3.16 µM
[42] = second compound 1 µM, first compound 10 µM

O=C(c1cc(Cc2n[nH]c(=O)c3ccccc23)ccc1F)N1CCN(C(=O)C2CC2)CC1
inactive: viability, T/C (compound 0.0316 µM) 104% and 99% and 94.7% | viability, T/C (compound 0.1 µM) 90.7% and 89.4% and 111% | viability, T/C (compound 0.316 µM) 95.8% and 90.3% and 114% | viability, T/C (compound 1 µM) 104% and 121% and 97.4% | viability, T/C (compound 3.16 µM) 81.3% and 87.6% and 46.4% | viability, T/C (compound 10 µM) 71.4% and 72.6% and 15.8%
> 10000 nM and 2910 nM: IC50 (curve of compound)

COc1c(OCCCN2CCOCC2)ccc2c3n(c(=NC(=O)c4cnc(N)nc4)nc12)CCN3 + CNC(C)C(=O)NC1CN(S(=O)(=O)c2cccc(S(=O)(=O)N3CCC4CCC(C(=O)NC(c5ccccc5)c5ccccc5)N4C(=O)C(NC(=O)C(C)NC)C3)c2)CCC2CCC(C(=O)NC(c3ccccc3)c3ccccc3)N2C1=O
< 3.16 nM: IC50 [2] | IC50 [3] | IC50 [4] | IC50 [5] | IC50 [6]
inactive: viability, T/C (second compound 0.00316 µM, first compound 0.00316 µM) 50.2% | viability, T/C (second compound 0.00316 µM, first compound 0.01 µM) 35.3% | viability, T/C [7] 14.7% | viability, T/C (second compound 0.01 µM, first compound 0.00316 µM) 10.9% | viability, T/C (second compound 0.0316 µM, first compound 0.00316 µM) 12.6% | viability, T/C (second compound 0.0316 µM, first compound 0.01 µM) 10.9% | viability, T/C (second compound 0.1 µM, first compound 0.00316 µM) 13.9% | viability, T/C (second compound 0.1 µM, first compound 0.01 µM) 11.1% | viability, T/C [19] 10.8% | viability, T/C [20] 12% | viability, T/C [21] 10.7% | viability, T/C [22] 8.86% | viability, T/C (second compound 0.316 µM, first compound 0.00316 µM) 11.8% | viability, T/C (second compound 1 µM, first compound 0.00316 µM) 11.3% | viability, T/C (second compound 1 µM, first compound 0.01 µM) 9.91% | viability, T/C [27] 13% | viability, T/C [28] 10.5% | viability, T/C [29] 9.23% | viability, T/C [30] 9.11%
3.2 nM: IC50 [1]
active: viability, T/C [8] 8.43% | viability, T/C [9] 8.17% | viability, T/C [10] 8.35% | viability, T/C (second compound 0.01 µM, first compound 0.01 µM) 9.75% | viability, T/C [11] 9.42% | viability, T/C [12] 8.15% | viability, T/C [13] 6.06% | viability, T/C [14] 8.55% | viability, T/C [15] 9.42% | viability, T/C [16] 9.87% | viability, T/C [17] 7.86% | viability, T/C [18] 8.09% | viability, T/C (second compound 0.316 µM, first compound 0.01 µM) 9.96% | viability, T/C [23] 10.1% | viability, T/C [24] 10% | viability, T/C [25] 8.17% | viability, T/C [26] 8.52%

C#Cc1c(F)ccc2cc(O)cc(-c3ncc4c(N5CC6CCC(C5)N6)nc(OCC56CCCN5CC(F)C6)nc4c3F)c12 (stereo not drawn) + CNC(C)C(=O)NC1CN(S(=O)(=O)c2cccc(S(=O)(=O)N3CCC4CCC(C(=O)NC(c5ccccc5)c5ccccc5)N4C(=O)C(NC(=O)C(C)NC)C3)c2)CCC2CCC(C(=O)NC(c3ccccc3)c3ccccc3)N2C1=O
active: viability, T/C [31] 11.3% | viability, T/C [32] 2.37% | viability, T/C [14] 11.8% | viability, T/C [33] 9.39% | viability, T/C [34] 4.11% | viability, T/C [18] 11.4% | viability, T/C [35] 9.52% | viability, T/C [36] 3.7% | viability, T/C [22] 11.2% | viability, T/C [37] 11.4% | viability, T/C [38] 3.67% | viability, T/C [26] 10.8% | viability, T/C [39] 11.4% | viability, T/C [40] 2.21% | viability, T/C [30] 10.6% | viability, T/C [41] 8.64% | viability, T/C [42] 1.87%
< 31.6 nM: IC50 [1] | IC50 [2] | IC50 [3] | IC50 [4] | IC50 [5] | IC50 [6]
inactive: viability, T/C [7] 41.9% | viability, T/C [8] 44.3% | viability, T/C [9] 16.3% | viability, T/C [10] 18.9% | viability, T/C [11] 19% | viability, T/C [12] 12.6% | viability, T/C [13] 12.2% | viability, T/C [15] 11.6% | viability, T/C [16] 12.4% | viability, T/C [17] 10.9% | viability, T/C [19] 12.5% | viability, T/C [20] 10.4% | viability, T/C [21] 11.9% | viability, T/C [23] 12.8% | viability, T/C [24] 12.9% | viability, T/C [25] 12.2% | viability, T/C [27] 13.9% | viability, T/C [28] 12.2% | viability, T/C [29] 13%

C=C(F)C(=O)N1CCN(c2nc(OCC3CCCN3C)nc3c2CCN(c2cccc4cccc(Cl)c24)C3)CC1CC#N (stereo not drawn) + CNC(C)C(=O)NC1CN(S(=O)(=O)c2cccc(S(=O)(=O)N3CCC4CCC(C(=O)NC(c5ccccc5)c5ccccc5)N4C(=O)C(NC(=O)C(C)NC)C3)c2)CCC2CCC(C(=O)NC(c3ccccc3)c3ccccc3)N2C1=O
inactive: viability, T/C [7] 47.7% | viability, T/C [8] 38.8% | viability, T/C [9] 29.2% | viability, T/C [10] 15.9% | viability, T/C [11] 14% | viability, T/C [12] 12% | viability, T/C [13] 15% | viability, T/C [15] 13.4% | viability, T/C [16] 9.36% | viability, T/C [19] 12% | viability, T/C [20] 10.8% | viability, T/C [23] 12% | viability, T/C [24] 12% | viability, T/C [27] 12.6% | viability, T/C [28] 10.9%
< 31.6 nM: IC50 [1] | IC50 [2] | IC50 [3] | IC50 [4] | IC50 [5] | IC50 [6]
active: viability, T/C [31] 1.96% | viability, T/C [32] 0.09% | viability, T/C [14] 9.45% | viability, T/C [33] 2.95% | viability, T/C [34] 0.08% | viability, T/C [17] 10.1% | viability, T/C [18] 7.62% | viability, T/C [35] 2.55% | viability, T/C [36] 0.08% | viability, T/C [21] 11% | viability, T/C [22] 7.97% | viability, T/C [37] 1.68% | viability, T/C [38] 0.08% | viability, T/C [25] 11.9% | viability, T/C [26] 7.65% | viability, T/C [39] 2.03% | viability, T/C [40] 0.1% | viability, T/C [29] 10.3% | viability, T/C [30] 7.96% | viability, T/C [41] 1.41% | viability, T/C [42] 0.18%
